Laboratory results from PubChem BioAssay (NCI).
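Five concentrations, 48 hours, 96-well plates. TGI marks complete inhibition of growth.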

Columns and labels:
Test in all cases: growth of human tumour cells (NCI), 48 h
[1] = system: HOP-62 NSCLC
[2] = system: A549 NSCLC
[3] = system: SW-620 colon
[4] = system: SNB-19 CNS
[5] = system: SF-295 CNS
[6] = system: OVCAR-4 ovarian
[7] = system: MDA-MB-231 breast
[8] = system: EKVX NSCLC
[9] = system: SK-MEL-5 melanoma
[10] = system: NCI-H460 lung
[11] = system: NCI-H522 lung
[12] = system: SR leukemia
[13] = system: SK-MEL-28 melanoma
[14] = system: ACHN renal
[15] = system: UO-31 renal
[16] = system: UACC-62 melanoma
[17] = system: TK-10 renal
[18] = system: SF-539 CNS
[19] = system: NCI-H226 lung
[20] = system: MCF7 breast
[21] = system: BT-549 breast
[22] = system: IGROV1 ovarian
[23] = system: OVCAR-3 ovarian
[24] = system: M14 melanoma
[25] = system: SF-268 CNS
[26] = system: MOLT-4 leukemia
[27] = system: HL-60(TB) leukemia
[28] = system: KM12 colon
[29] = system: U251 CNS
[30] = system: 786-0 renal
[31] = system: MDA-N
[32] = system: HS 578T breast
[33] = system: HCC-2998 colon
[34] = system: CCRF-CEM leukemia
[35] = system: NCI/ADR-RES ovarian
[36] = system: CAKI-1 renal
[37] = system: SN12C renal
[38] = system: K-562 leukemia
[39] = system: HCT-116 colon
[40] = system: COLO 205 colon
[41] = system: T-47D breast
[42] = system: DU-145 prostate
[43] = system: SNB-75 CNS
[44] = system: SK-MEL-2 melanoma
[45] = system: PC-3 prostate
[46] = system: A498 renal
[47] = system: SK-OV-3 ovarian
[48] = system: UACC-257 melanoma
[49] = system: HCT-15 colon
[50] = system: OVCAR-5 ovarian
[51] = system: OVCAR-8 ovarian
[52] = system: NCI-H23 lung
[53] = system: HT29 colon
[54] = system: RXF 393 renal
[55] = system: MDA-MB-435
[56] = system: LOX IMVI melanoma
[57] = system: RPMI-8226 leukemia
[58] = system: MALME-3M melanoma
[59] = system: HOP-92 NSCLC

With `O=C1CSCc2sccc21` the TGI [1] was greater than 100 µM, the TGI [2] was greater than 100 µM and the TGI [3] was greater than 100 µM. The TGI [4] was greater than 100 µM, the TGI [5] was greater than 100 µM and the TGI [6] was greater than 100 µM. The TGI [7] was greater than 100 µM, the TGI [8] was greater than 100 µM and the TGI [9] was greater than 100 µM. The TGI [10] was greater than 100 µM, the TGI [11] was greater than 100 µM and the TGI [12] was greater than 100 µM. The TGI [13] was greater than 100 µM, the TGI [14] was greater than 100 µM and the TGI [15] was greater than 100 µM. For the same molecule, the TGI [16] was greater than 100 µM, the TGI [17] was greater than 100 µM and the TGI [18] was greater than 100 µM. The TGI [19] was greater than 100 µM, the TGI [20] was greater than 100 µM and the TGI [21] was greater than 100 µM. For the same molecule, the TGI [22] was greater than 100 µM, the TGI [23] was greater than 100 µM and the TGI [24] was greater than 100 µM. It also gave a TGI [25] greater than 100 µM, a TGI [26] greater than 100 µM and a TGI [27] greater than 100 µM. For the same molecule, the TGI [28] was greater than 100 µM, the TGI [29] was greater than 100 µM and the TGI [30] was greater than 100 µM. The TGI [31] was greater than 100 µM, the TGI [32] was greater than 100 µM and the TGI [33] was greater than 100 µM. It also gave a TGI [34] greater than 100 µM, a TGI [35] greater than 100 µM and a TGI [36] greater than 100 µM. The TGI [37] was greater than 100 µM, the TGI [38] was greater than 100 µM and the TGI [39] was greater than 100 µM. For the same molecule, the TGI [40] was greater than 100 µM, the TGI [41] was greater than 100 µM and the TGI [42] was greater than 100 µM. The TGI [43] was greater than 100 µM, the TGI [44] was greater than 100 µM and the TGI [45] was greater than 100 µM. It also gave a TGI [46] greater than 100 µM, a TGI [47] greater than 100 µM and a TGI [48] greater than 100 µM. For the same molecule, the TGI [49] was greater than 100 µM, the TGI [50] was greater than 100 µM and the TGI [51] was greater than 100 µM. It also gave a TGI [52] greater than 100 µM, a TGI [53] greater than 100 µM and a TGI [54] greater than 100 µM.
With `CCOC(=O)C1Cc2c(cc3c4c(cccc24)N(C(C)=O)C3)N(C)C1` (configuration not stated) the TGI [1] was greater than 100 µM, the TGI [2] was greater than 100 µM and the TGI [3] was greater than 100 µM. It also gave a TGI [4] greater than 100 µM, a TGI [5] greater than 100 µM and a TGI [6] greater than 100 µM. It also gave a TGI [7] of 5.71 µM, a TGI [8] greater than 100 µM and a TGI [9] greater than 100 µM. The TGI [55] was 7.04 µM, the TGI [10] was greater than 100 µM and the TGI [11] was 1.3 µM. For the same molecule, the TGI [12] was greater than 100 µM, the TGI [13] was greater than 100 µM and the TGI [14] was greater than 100 µM. It also gave a TGI [15] greater than 100 µM, a TGI [16] greater than 100 µM and a TGI [17] greater than 100 µM. The TGI [18] was 10.1 µM, the TGI [56] was greater than 100 µM and the TGI [19] was 9.37 µM. The TGI [20] was greater than 100 µM, the TGI [22] was greater than 100 µM and the TGI [23] was 3.27 µM. The TGI [24] was greater than 100 µM, the TGI [25] was greater than 100 µM and the TGI [26] was greater than 100 µM. It also gave a TGI [27] greater than 100 µM, a TGI [28] greater than 100 µM and a TGI [29] greater than 100 µM. It also gave a TGI [30] greater than 100 µM, a TGI [31] of 3.29 µM and a TGI [57] greater than 100 µM. For the same molecule, the TGI [32] was 9.07 µM, the TGI [33] was greater than 100 µM and the TGI [34] was greater than 100 µM. For the same molecule, the TGI [36] was greater than 100 µM, the TGI [37] was greater than 100 µM and the TGI [58] was greater than 100 µM. For the same molecule, the TGI [38] was greater than 100 µM, the TGI [39] was greater than 100 µM and the TGI [40] was greater than 100 µM. The TGI [41] was greater than 100 µM, the TGI [42] was greater than 100 µM and the TGI [43] was greater than 100 µM. It also gave a TGI [44] greater than 100 µM, a TGI [45] greater than 100 µM and a TGI [46] greater than 100 µM. It also gave a TGI [47] greater than 100 µM, a TGI [48] greater than 100 µM and a TGI [49] greater than 100 µM. The TGI [50] was greater than 100 µM, the TGI [51] was greater than 100 µM and the TGI [52] was greater than 100 µM. For the same molecule, the TGI [53] was greater than 100 µM, the TGI [54] was 44.7 µM and the TGI [59] was 99.7 µM.
For `COc1ccccc1NC(=S)NN=C(C)c1cccc(C(C)=NNC(=S)Nc2ccccc2OC)n1`, the TGI [1] was greater than 100 µM, the TGI [2] was greater than 100 µM and the TGI [3] was greater than 100 µM. The TGI [4] was greater than 100 µM, the TGI [5] was greater than 100 µM and the TGI [6] was 74.3 µM. For the same molecule, the TGI [7] was 68.9 µM, the TGI [8] was greater than 100 µM and the TGI [9] was 32.7 µM. The TGI [55] was greater than 100 µM, the TGI [10] was greater than 100 µM and the TGI [11] was 97.3 µM. For the same molecule, the TGI [12] was 17.2 µM, the TGI [13] was greater than 100 µM and the TGI [14] was 64.3 µM. The TGI [15] was greater than 100 µM, the TGI [16] was greater than 100 µM and the TGI [18] was 62.4 µM. For the same molecule, the TGI [56] was greater than 100 µM, the TGI [19] was greater than 100 µM and the TGI [20] was greater than 100 µM. The TGI [22] was greater than 100 µM, the TGI [23] was greater than 100 µM and the TGI [24] was 25.8 µM. For the same molecule, the TGI [25] was greater than 100 µM, the TGI [26] was 74.5 µM and the TGI [27] was 99.5 µM. The TGI [28] was greater than 100 µM, the TGI [29] was greater than 100 µM and the TGI [30] was 37.7 µM. It also gave a TGI [31] greater than 100 µM, a TGI [57] greater than 100 µM and a TGI [33] greater than 100 µM. It also gave a TGI [34] greater than 100 µM, a TGI [35] of 34.7 µM and a TGI [36] greater than 100 µM. It also gave a TGI [37] greater than 100 µM, a TGI [58] of 40.6 µM and a TGI [38] greater than 100 µM. It also gave a TGI [39] of 11.1 µM, a TGI [40] greater than 100 µM and a TGI [41] greater than 100 µM. It also gave a TGI [42] greater than 100 µM, a TGI [43] greater than 100 µM and a TGI [44] greater than 100 µM. It also gave a TGI [45] greater than 100 µM, a TGI [46] of 93 µM and a TGI [47] greater than 100 µM. For the same molecule, the TGI [48] was 93.9 µM, the TGI [49] was greater than 100 µM and the TGI [50] was greater than 100 µM. It also gave a TGI [51] greater than 100 µM, a TGI [52] greater than 100 µM and a TGI [53] greater than 100 µM. For the same molecule, the TGI [54] was 47.6 µM and the TGI [59] was 97.7 µM.
